Results taken from patent publication US20250109139A1, “TRICYCLIC COMPOUND, AND PREPARATION METHOD THEREFOR AND USE THEREOF” (SHANGHAITECH UNIVERSITY, priority 2022, published 2025).
Where two headings read alike, the source gives them in different places.

Columns and labels:
dopamine D2 receptors [1] = biological target: T1, dopamine D2 receptors (Homo sapiens (Human), UniProt P14416); assay: Dopamine D2 receptor radioligand competition binding assay ([3H]-Methylspiperone); conditions: [3H]-Methylspiperone 0.3 to 0.5 nM, 293T membranes
Experimental: The affinity of the compounds of the present disclosure for dopamine D2 receptors was determined by a radioligand competition binding assay.
In the first step, a cell membrane component containing specific dopamine D2 receptors was prepared. A 10 cm culture dish was used for transfection with […] of dopamine D2 receptors and 40 μL of polyethylenimine (PEI hereafter). […] A vacuum pump was used to suck off the culture medium, 3 mL of lysis buffer was added to each culture dish, and the cells were placed in a 4° C. cold room for 10 minutes. After the cells were detached, the cells were transferred to a 15 mL centrifuge tube and centrifuged at 1500 rpm for 5 minutes at 4° C., and the supernatant was discarded. The cell pellet was transferred to a tissue homogenizer, and 3 mL of lysis buffer was added and fully ground until the cells were broken. Then, cell suspension was equally aliquoted into several EP tubes, centrifuged at 12000 rpm for 5 minutes at 4° C., and the supernatant was discarded. The precipitate was the cell membrane component containing the dopamine D2 receptors.
First, a standard binding buffer was added to the cell membrane component containing the dopamine D2 receptors, and the cell membrane was disrupted and resuspended with an electric tissue homogenizer. 30 μL of membrane protein suspension was added to each well of a 96-well plate. Then, 30 μL of different drugs were added to the 96-well plate sequentially from bottom to top to ensure that the final drug concentrations were 10^−5 M, 10^−6 M, 10^−7 M, 10^−8 M, 10^−9 M, and 0 M, with two replicates per treatment. Next, 30 μL of [3H]-Methylspiperone was added to each well of the 96-well plate. The plate was incubated at room temperature in the dark for 2 hours. Detection was conducted. The machine readout value reflected the amount of [3H]-Methylspiperone bound on the membrane, and after further data processing, the affinity Ki values of different compounds for the dopamine D2 receptors were obtained.

dopamine D2 receptors [2] = biological target: T1, dopamine D2 receptors; assay: Dopamine D2 receptor Gαi1 BRET (G protein trimer dissociation); assay type: cell-based; conditions: for Emax: relative to endogenous ligand dopamine, read-out: Gαi1 BRET Emax % ± SEM
Experimental: (§1) To examine the downstream G-protein signaling pathway mediated by dopamine D2 receptors, on the first day, a 6 cm culture dish was used for transfection with 1 μg of dopamine D2 receptors, 1 μg of Gαi1 containing C-terminal seaweed luciferase (Gαi1-Rluc), 1 μg of Gβ3, 1 μg of Gγ9 containing C-terminal green fluorescent protein (Gγ9-GFP) mixed with 16 μL of PEI. At the same time, in order to examine the downstream β-arrestin2 signaling pathway mediated by dopamine D2 receptors, on the first day, a 6 cm culture dish was used for transfection with […] of dopamine D2 receptors containing C-terminal seaweed luciferase (D2-Rluc), […] of G protein-coupled receptor kinase 2 (GRK2), […] of β-arrestin2 containing N-terminal green fluorescent protein (GFP2-ARRB2) mixed with 14 μL of PEI. The next day, the confluent cells of a 6 cm culture dish were digested and reseeded into a 96-well plate with 100 μL of culture medium added to each well. On the third day, the drugs were added for test. The 96-well plate was taken out from the cell incubator to decant the culture medium, 40 μL of the substrate coelenterazine 400a (final concentration of 5 μM) was added to each well, and then 20 μL of different drugs were added sequentially from left to right to ensure that the final concentration of the drug decreased gradually from bottom to top, with two replicates per treatment. Finally, the prepared samples were loaded on machine for test. The machine readout value reflected the recruitment of β-arrestin2 to the membrane or the dissociation of G protein trimer. The former indicated the degree of activation of the β-arrestin2 signaling pathway downstream of the dopamine D2 receptors, and the latter indicated the degree of activation of the G protein signaling pathway downstream of the dopamine D2 receptors.

dopamine D2 receptors [3] = biological target: T1, dopamine D2 receptors; assay: Dopamine D2 receptor β-arrestin2 BRET (recruitment); assay type: cell-based; conditions: for Emax: relative to endogenous ligand dopamine, read-out: β-arrestin2 BRET Emax % ± SEM
Experimental: as §1

[4] = Pharmacokinetics in SD rats, single dose intragastric and intravenous; assay type: in vivo; conditions: male, rat, plasma; for AUC(0-t): read-out: Area under the drug-time curve AUC0-t; for half-life: read-out: Elimination half-life t1/2 (converted); for MRT: read-out: Mean residence time MRT; for Cmax: read-out: Peak drug concentration Cmax
Experimental: Testing of pharmacokinetic properties of compounds administered in a single dose to SD rats by intragastric administration and intravenous injection
After the compound was administered in a single dose to male SD rats, blood samples were collected at different time points. The concentration of the compound in the plasma of the rats was determined by LC-MS/MS and the relevant pharmacokinetic parameters were calculated to investigate the pharmacokinetics of the compound in rats.
Male SD rats were provided by Suzhou JOINN Laboratories Co., Ltd. SD rats were fasted with free access to water for 12 to 14 hours one day before administration, and were fed 4 hours after administration.
For each compound, the […] were divided into two groups: intravenous injection and intragastric administration, with 3 rats in each group. For both intravenous injection (administered at a dose of 3 mg/kg and a concentration of 0.6 mL/kg) and intragastric administration (administered at a dose of 10 mg/kg and a concentration of 1 mL/kg), 5% DMSO+5% Solutol+90% saline was used as the vehicle.
Sample collection: 0.10 mL of blood was collected from the orbit of each animal in IV/PO groups each time at 5 minutes, 15 minutes, 30 minutes, 1 hour, 2 hours, 4 hours, 6 hours, 8 hours, and 24 hours after administration of the test compound, and anticoagulated with EDTA-K2. Blood samples were placed on ice after collection, and plasma was separated by centrifugation within 30 minutes (centrifugation conditions: 5000 rpm, 10 minutes, 4° C.). The collected plasma was stored at −80° C. before analysis.
Data processing: The data acquisition and control system software was Analyst 1.5.1 software (Applied Biosystem). The peak integration method of chromatographic samples was automatic integration; the ratio of the peak area of the sample to the peak area of the internal standard was used as an index for regression with the concentration of the sample. […] Pharmacokinetic parameters were analyzed with a non-compartmental model using WinNonlin Professional v6.3 (Pharsight, USA). Cmax was the measured maximum plasma concentration, the area under the plasma concentration-time curve AUC(0→t) was calculated by the trapezoidal method, and tmax was the time to peak plasma concentration after administration. Experimental data were presented as “Mean±SD” (n≥3) or “Mean” (n=2).

[5] = Brain permeability test, single intraperitoneal dose in C57 male mice; assay type: in vivo; conditions: intraperitoneal 5 mg/kg
Experimental: Using the same method as that in the pharmacokinetic experiment, 0.030 mL of blood was collected from the orbit of each animal at 0.5 hours, 2.0 hours, and 4.0 hours, and anticoagulated with EDTA-K2. Blood samples were placed on ice after collection, and plasma was separated by centrifugation within 30 minutes (centrifugation conditions: 5000 rpm, 10 minutes, 4° C.). The collected plasma was stored at −80° C. before analysis. […] The homogenate was stored at −80° C. before analysis. Drug concentrations in plasma and brain tissues were analyzed by LC/MS/MS for comparison.

[6] = unit printed only in Cariprazine cell, read-out: Gαi1 BRET EC50
[7] = unit printed only in Cariprazine cell, read-out: β-arrestin2 BRET EC50
[8] = read-out: Affinity pKi ± SEM (converted)
[9] = read-out: Gαi1 BRET pEC50 ± SEM (converted)
[10] = read-out: β-arrestin2 BRET pEC50 ± SEM (converted)
[11] = intravenous injection, dose 10 mg/kg

T1 sequence (P14416 whole entry): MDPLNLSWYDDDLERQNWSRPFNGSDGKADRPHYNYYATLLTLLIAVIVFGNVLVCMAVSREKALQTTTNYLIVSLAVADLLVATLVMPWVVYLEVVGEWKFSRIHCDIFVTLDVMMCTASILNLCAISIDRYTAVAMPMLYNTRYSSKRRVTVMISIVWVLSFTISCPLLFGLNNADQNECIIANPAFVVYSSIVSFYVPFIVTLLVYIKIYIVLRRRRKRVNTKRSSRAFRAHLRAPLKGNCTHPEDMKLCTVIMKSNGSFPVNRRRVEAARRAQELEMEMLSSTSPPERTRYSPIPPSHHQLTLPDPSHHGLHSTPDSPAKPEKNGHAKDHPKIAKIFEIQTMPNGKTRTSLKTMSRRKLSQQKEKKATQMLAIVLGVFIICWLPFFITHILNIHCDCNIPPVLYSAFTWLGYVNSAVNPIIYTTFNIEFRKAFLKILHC

Compound: COc1cccc2c3c(oc12)CN(C/C=C/COc1ccc2ccc(=O)[nH]c2c1)CC3 [I-A10, (E)-7-((4-(8-methoxy-3,4-dihydrobenzofuro[2,3-c]pyridin-2(1H)-yl)but-2-en-1-yl)oxy)quinolin-2(1H)-one]
- Affinity pKi ± SEM (dopamine D2 receptors [1]): (6.85 ± 0.19)
- Ki (dopamine D2 receptors [1]; read-out: Affinity Ki): 139 nM
- Gαi1 BRET pEC50 ± SEM (dopamine D2 receptors [2]): (7.21 ± 0.12)
- Emax (dopamine D2 receptors [2]): 27%
- EC50 (dopamine D2 receptors [2]; [6]): 61.3 nM
- Emax (dopamine D2 receptors [3]): 107%
- EC50 (dopamine D2 receptors [3]; [7]): 4.61 nM

Compound: COc1cccc2c3c(oc12)CN(CC[C@H]1CC[C@H](NS(C)(=O)=O)CC1)CC3 [I-A13, N-(trans-4-(2-(8-methoxy-3,4-dihydrobenzofuro[2,3-c]pyridin-2(1H)-yl)ethyl)cyclohexyl)methanesulfonamide]
- Ki (dopamine D2 receptors [1]; read-out: Affinity Ki): 1720 nM
- Ki (dopamine D2 receptors [1]; [8]): 1580 nM
- EC50 (dopamine D2 receptors [2]; [9]): 38.9 nM
- Emax (dopamine D2 receptors [2]): 53%
- EC50 (dopamine D2 receptors [2]; [6]): 46.6 nM
- EC50 (dopamine D2 receptors [3]; [10]): 0.832 nM
- Emax (dopamine D2 receptors [3]): 81%
- EC50 (dopamine D2 receptors [3]; [7]): 4.61 nM

Compound: CC(C)Oc1cccc2c3c(oc12)CN(CC[C@H]1CC[C@H](NC(=O)N(C)C)CC1)CC3 [I-A19, 3-(trans-4-(2-(8-isopropoxy-3,4-dihydrobenzofuro[2,3-c]pyridin-2(1H)-yl)ethyl)cyclohexyl)-1,1-dimethylurea]
- Affinity pKi ± SEM (dopamine D2 receptors [1]): (6.03 ± 0.07)
- Ki (dopamine D2 receptors [1]; read-out: Affinity Ki): 930 nM
- EC50 (dopamine D2 receptors [2]; [9]): 10.7 nM
- Emax (dopamine D2 receptors [2]): 40%
- EC50 (dopamine D2 receptors [2]; [6]): 10.6 nM
- Emax (dopamine D2 receptors [3]): 21%
- EC50 (dopamine D2 receptors [3]; [7]): 8.36 nM

Compound: COc1cccc2c3c([nH]c12)CN(CCCCOc1ccc2ccc(=O)[nH]c2c1)CC3 [I-B1, 7-(4-(8-methoxy-1,3,4,9-tetrahydro-2H-pyrido[3,4-b]indol-2-yl)butoxy)quinolin-2(1H)-one]
- Ki (dopamine D2 receptors [1]; read-out: Affinity Ki): 362 nM
- Ki (dopamine D2 receptors [1]; [8]): 83.2 nM
- EC50 (dopamine D2 receptors [2]; [9]): 102 nM
- Emax (dopamine D2 receptors [2]): 22%
- EC50 (dopamine D2 receptors [2]; [6]): 233 nM
- EC50 (dopamine D2 receptors [3]; [10]): 12 nM
- Emax (dopamine D2 receptors [3]): 50%
- EC50 (dopamine D2 receptors [3]; [7]): 13.1 nM

Compound: COc1cccc2c3c([nH]c12)CN(CCCOc1ccc2ccc(=O)[nH]c2c1)CC3 [I-B3, 7-(3-(8-methoxy-1,3,4,9-tetrahydro-2H-pyrido[3,4-b]indol-2-yl)propoxy)quinolin-2(1H)-one]
- Ki (dopamine D2 receptors [1]; read-out: Affinity Ki): 282 nM
- Ki (dopamine D2 receptors [1]; [8]): 288 nM
- EC50 (dopamine D2 receptors [2]; [9]): 13.2 nM
- Emax (dopamine D2 receptors [2]): 41%
- EC50 (dopamine D2 receptors [2]; [6]): 13 nM
- Emax (dopamine D2 receptors [3]): 90%
- EC50 (dopamine D2 receptors [3]; [7]): 0.47 nM

Compound: COc1cccc2c1cc1n2CCN(C/C=C/COc2ccc3ccc(=O)[nH]c3c2)C1 [I-C5, (E)-7-((4-(9-methoxy-3,4-dihydropyrazino[1,2-a]indol-2(1H)-yl)but-2-en-1-yl)oxy)quinolin-2(1H)-one]
- Affinity pKi ± SEM (dopamine D2 receptors [1]): (6.36 ± 0.28)
- Ki (dopamine D2 receptors [1]; read-out: Affinity Ki): 438 nM
- EC50 (dopamine D2 receptors [2]; [9]): 97.7 nM
- Emax (dopamine D2 receptors [2]): 64%
- EC50 (dopamine D2 receptors [2]; [6]): 96.5 nM
- Emax (dopamine D2 receptors [3]): 127%
- EC50 (dopamine D2 receptors [3]; [7]): 20.8 nM

Compound: COc1cccc2c1cc1n2CCN(CC[C@H]2CC[C@H](NC(=O)N(C)C)CC2)C1 [I-C7, 3-(trans-4-(2-(9-methoxy-3,4-dihydropyrazino[1,2-a]indol-2(1H)-yl)ethyl)cyclohexyl)-1,1-dimethylurea]
- Emax (dopamine D2 receptors [2]): 97%
- EC50 (dopamine D2 receptors [2]; [6]): 123 nM
- EC50 (dopamine D2 receptors [3]; [10]): 195 nM
- Emax (dopamine D2 receptors [3]): 151%
- EC50 (dopamine D2 receptors [3]; [7]): 291 nM
- Vd ([4]; intravenous injection, dose 10 mg/kg, read-out: Apparent volume of distribution Vdss): 4.75 ± 0.4 L/kg
- AUC(0-t) [4, 11]: 2520 ± 446 ng·h/mL
- clearance ([4]; intravenous injection, dose 10 mg/kg, read-out: Clearance CL): 20.1 ± 3.6 mL/min/kg
- half-life [4, 11]: 220 ± 6 min
- MRT [4, 11]: 3.98 ± 0.4 h
- Cmax [4, 11]: 765 ± 74 ng/mL
- AUC(0-t) ([4]; oral administration, 10 mg/kg): 10400 ± 1180 ng·h/mL
- bioavailability ([4]; oral administration, 10 mg/kg, read-out: Bioavailability F): 123 ± 14%
- half-life ([4]; oral administration, 10 mg/kg): 512 ± 138 min
- MRT ([4]; oral administration, 10 mg/kg): 11.5 ± 4.1 h
- Cmax ([4]; oral administration, 10 mg/kg): 1000 ± 195 ng/mL
- Tmax ([4]; oral administration, 10 mg/kg, read-out: Time to peak concentration tmax): 2 h
- AUC brain ([5]; brain): 2767 ng·h/mL
- Kp at 0.5 h ([5]; male, C57, mouse, brain/plasma, ip, 0.5 h, read-out: 0.5 h ratio (brain/plasma)): 3.05
- Kp at 2 h ([5]; male, C57, mouse, brain/plasma, ip, 2.0 h, read-out: 2.0 h ratio (brain/plasma)): 2.67
- Kp at 4 h ([5]; male, C57, mouse, brain/plasma, ip, 4.0 h, read-out: 4.0 h ratio (brain/plasma)): 2.24
- Kp ([5]; male, C57, mouse, brain/plasma, ip, read-out: AUC ratio (brain/plasma)): 2.71
- concentration at 0.5 h ([5]; male, C57, mouse, 0.5 h, brain, read-out: 0.5 h brain concentration): 1030 ± 96 ng/mL
- concentration at 0.5 h ([5]; male, C57, mouse, 0.5 h, plasma, read-out: 0.5 h plasma concentration): 336 ± 28 ng/mL
- concentration at 2 h ([5]; male, C57, mouse, 2.0 h, brain, read-out: 2.0 h brain concentration): 714 ± 143 ng/mL
- concentration at 2 h ([5]; male, C57, mouse, 2.0 h, plasma, read-out: 2.0 h plasma concentration): 267 ± 47 ng/mL
- concentration at 4 h ([5]; male, C57, mouse, 4.0 h, brain, read-out: 4.0 h brain concentration): 491 ± 80 ng/mL
- concentration at 4 h ([5]; male, C57, mouse, 4.0 h, plasma, read-out: 4.0 h plasma concentration): 219 ± 15 ng/mL
- AUC ([5]; male, C57, mouse, ip, plasma): 1020 ng·h/mL
